Assays:
[1] = tested on: DU145TXR; assay: Resensitization of DU145TXR to paclitaxel by 29 variants (MTT cell viability); assay type: cell-based, human; settings: for Fold vs PTX ÷ 29: compared to parental compound 29
Text: The Group 1 ChemGen/docking routine produced variants of P-gp inhibitor 29 resensitize a multidrug resistant, P-gp overexpressing prostate cancer cell line to paclitaxel. The mitochondrial reduction potential of cells is often used as an indicator for cell viability using MTT assays^40-42. Using these assays it was observed that the five Group 1 derivatives of 29 predicted through the ChemGen/docking routine and synthesized here, 216, 227, 231, 541 and 551, re-sensitized the P-gp overexpressing prostate cancer cell line, DU145TXR^33, to the chemotherapeutic, paclitaxel (FIG. 9, showing results of assays at concentrations of 3 μM, 5 μM, 7 μM, and 10 μM).
Cytotoxicity of the chemotherapeutic, paclitaxel (PTX) to P-gp overexpressing prostate cancer cells, DU145TXR, was determined in the absence and presence of the ChemGen designed 29-variants, 216, 227, 231, 541 and 551. For each experimental compound IC50 values of PTX alone or in the presence of inhibitors, fold improvement of PTX sensitivity in the presence of inhibitor, and fold improvement of PTX sensitivity by variants compared to parental compound 29 are given.

[2] = target: T1, Cysteineless Mouse MDR3 P-glycoprotein (Mus musculus, UniProt P21447, C1070A/C1121A/C1223A/C133A/C427A/C638A/C669A/C713A/C952A); assay: ATP hydrolysis by purified P-glycoprotein, basal and verapamil-stimulated; assay type: biochemical; settings: for Effect on stimulated ATPase / Stimulated ATPase (% of DMSO): in the presence of verapamil; for Stimulated ATPase (% of DMSO) / Basal ATPase (% of DMSO): ± standard deviation; for Effect on basal ATPase / Basal ATPase (% of DMSO): without added transport substrate
T1 construct: made in house; host or cells: Pichia pastoris
Text: The efficacy of molecules identified using in silico methods to function as potential inhibitors of P-glycoprotein was initially tested with regard to their capability to inhibit ATP hydrolysis by purified P-glycoprotein. For this purpose, a well-established activity assay for ATP hydrolyzing enzymes that uses the oxidation of NADH to NAD+ through coupling the reactions of pyruvate kinase and lactate dehydrogenase to the hydrolysis of ATP was adapted to medium throughput conditions on 96 well plates. […] In this set-up, the effects of potential small molecule inhibitors on the ATP hydrolysis activity of P-glycoprotein were tested in duplicate or triplicate and were repeated at least two times using different enzyme preparations.
The P-glycoprotein used in these assays was a close relative of the human P-glycoprotein that is found in mice. A mutant version of the mouse P-glycoprotein where all intrinsic cysteine amino acids had been replaced by alanine residues was recombinantly expressed in the yeast Pichia pastoris and used for these initial tests. […] Prior to testing the ATP-hydrolysis activity, P-glycoprotein was incubated with phosphatidyl choline for stabilization of the enzyme during the assay.
Different concentrations of the to-be-tested small molecules were added and pre-incubated at 37° C. The ATP hydrolysis reaction was then started by adding equal volume of double concentrated ATPase cocktail. The final ATP concentration in the reaction was 2 mM. The reaction was allowed to proceed for 20 minutes, the rate of ATP hydrolysis was calculated using the molar extinction coefficient of NADH, and the one-to-one relationship of ATP hydrolyzed and NADH oxidized.
Evaluation of mode of inhibition of P-glycoprotein by Group 1 and Group 2 variants of compound 29. To assess the mode of inhibition of P-gp by the novel variants of P-gp inhibitor 29, ATP hydrolysis by P-gp was evaluated in the presence or absence of the variants. […] Murine P-gp (MDR3) expressed in Pichia pastoris that had all naturally occurring cysteines replaced with alanine, was used^45, 46. It is widely assumed that the ATP hydrolytic rate of P-gp is stimulated in the presence of transport substrates when compared to ATP hydrolysis in the absence of transport substrates. Assays comparing these rates can therefore be useful not only in identifying inhibitors of P-gp catalyzed ATP hydrolysis, but also to potentially infer whether a compound might be a transport substrate if basal ATPase rates are stimulated by the addition of a compound.

[3] = target: P-gp (Homo sapiens, UniProt P08183); settings: for Transport substrate for P-gp: not told
Protocol: Stimulation of basal ATPase by 29-variants was used as an indicator that a compound may be a P-gp transport substrate. Effects on stimulated P-gp ATPase activity indicated whether a compound directly interfered with ATP usage by the protein (***, p<0.001; **, p<0.01; *, p<0.1; NS, not significant). Quantitative cellular accumulation of 29-variants was performed using LC-MS/MS and is presented as a ratio of the cellular amounts of 29-variants in the presence of P-gp inhibitor, tariquidar, divided by amounts accumulated in its absence. […] Binding of an ATP analog, SL-ATP, to P-gp was used to determine whether ATP binding to P-gp was affected by the 29-variants. Values+/−standard deviations are shown for at least three different P-gp preparations and three independent SL-ATP titration experiments. The values for SL-ATP binding in the presence of 29 were taken directly from Brewer et al. (2014).
Intracellular accumulation of compound 29 variants. Cell accumulation assays for each of the 29 variants were performed as in reference^28 to more directly assess whether the compounds were indeed transport substrates for P-gp.

[4] = target: T1, Cysteineless Mouse MDR3 P-glycoprotein; assay: SL-ATP binding to P-gp by ESR spectroscopy; settings: for Maximum ATP binding mol SL-ANP bound/mol P-gp: SL-ATP titration in presence of compound
Text: Determination of the possible mode of ATP hydrolysis inhibition by the identified P-glycoprotein inhibitors. The mode of hydrolysis of ATP by P-glycoprotein was investigated by measuring the maximal binding stoichiometry and binding affinity of an analog of ATP, SL-ATP, and by Electron Spin Resonance (ESR) spectroscopy, similar to in both the presence and absence of the identified inhibitors.
The high-field signal of the freely mobile, unbound SL-ATP is compared and is used to calculate the amount of ATP-analog bound to P-glycoprotein. Binding of SL-ATP in the absence of any P-glycoprotein inhibitor saturated at about 2 mol of SL-nucleotide bounds per mol of P-glycoprotein.
FIGS. 2A-2D are plots showing the effects of P-glycoprotein ATP hydrolysis inhibitors on nucleotide binding. Between 30 and 50 microM Pgp were incubated with 50 microM inhibitor compound. Increasing amounts of SL-ATP were added. The ESR signal of the free SL-ATP in the presence of P-glycoprotein and inhibitor was compared to that in the absence of P-glycoprotein. The graphs represent at least 3 individual studies each using 3 to 5 different P-glycoprotein preparations.

[5] = target: Normal Human MDR1 P-glycoprotein (Homo sapiens, UniProt P08183); assay: ATP hydrolysis by human P-gp assembled into membrane nanodiscs; assay type: biochemical; settings: human MDR1 P-gp in nanodiscs
Text: To assess whether the observed discrepancies of compounds stimulating basal P-gp ATPase activity but not being transport substrates of the human pump in the cell culture assessments were due to the fact that these biochemical assays used a cysteineless variant of the mouse MDR3 P-glycoprotein, the experiments were repeated using normal human MDR1 P-gp. In order to stabilize the human protein for the activity assays, the protein was assembled into membrane nanodiscs as described herein.

[6] = 3 μM inhibitor, fold improvement of PTX sensitivity vs PTX alone

T1 sequence (P21447 whole entry C133A/C427A/C638A/C669A/C713A/C952A/C1070A/C1121A/C1223A): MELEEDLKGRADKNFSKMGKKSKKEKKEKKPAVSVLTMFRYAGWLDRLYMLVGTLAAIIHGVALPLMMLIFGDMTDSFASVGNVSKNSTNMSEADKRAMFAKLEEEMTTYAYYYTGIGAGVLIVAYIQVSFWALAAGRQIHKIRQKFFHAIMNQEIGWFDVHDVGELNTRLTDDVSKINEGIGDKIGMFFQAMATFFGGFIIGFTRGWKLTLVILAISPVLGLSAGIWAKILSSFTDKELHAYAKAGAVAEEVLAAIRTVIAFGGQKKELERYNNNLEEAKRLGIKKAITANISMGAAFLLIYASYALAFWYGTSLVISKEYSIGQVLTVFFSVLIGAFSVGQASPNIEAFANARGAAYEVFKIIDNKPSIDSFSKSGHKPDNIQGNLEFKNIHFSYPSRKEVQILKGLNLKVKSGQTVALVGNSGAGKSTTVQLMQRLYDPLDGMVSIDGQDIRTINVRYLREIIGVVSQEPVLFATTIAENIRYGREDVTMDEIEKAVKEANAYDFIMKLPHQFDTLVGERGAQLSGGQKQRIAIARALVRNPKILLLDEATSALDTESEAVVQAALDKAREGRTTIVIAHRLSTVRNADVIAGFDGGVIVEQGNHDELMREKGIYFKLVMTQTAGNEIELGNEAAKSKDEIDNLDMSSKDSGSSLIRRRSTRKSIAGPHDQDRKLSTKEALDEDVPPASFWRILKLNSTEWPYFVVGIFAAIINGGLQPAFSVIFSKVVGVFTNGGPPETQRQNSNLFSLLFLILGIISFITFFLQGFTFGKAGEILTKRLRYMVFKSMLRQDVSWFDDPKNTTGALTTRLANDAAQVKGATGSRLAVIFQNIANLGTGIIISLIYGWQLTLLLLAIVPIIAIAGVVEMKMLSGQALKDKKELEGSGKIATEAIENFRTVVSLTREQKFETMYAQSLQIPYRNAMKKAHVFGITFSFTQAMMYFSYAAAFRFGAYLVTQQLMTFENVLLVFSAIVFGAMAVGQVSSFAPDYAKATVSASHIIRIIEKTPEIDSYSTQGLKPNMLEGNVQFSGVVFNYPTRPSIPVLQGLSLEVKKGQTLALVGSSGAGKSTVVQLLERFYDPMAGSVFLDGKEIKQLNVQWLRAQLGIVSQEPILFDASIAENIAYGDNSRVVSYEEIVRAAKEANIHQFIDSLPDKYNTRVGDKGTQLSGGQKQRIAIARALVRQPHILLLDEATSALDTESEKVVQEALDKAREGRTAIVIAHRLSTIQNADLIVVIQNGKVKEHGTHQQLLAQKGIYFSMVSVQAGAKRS
Chain of P-gp (P08183 whole entry): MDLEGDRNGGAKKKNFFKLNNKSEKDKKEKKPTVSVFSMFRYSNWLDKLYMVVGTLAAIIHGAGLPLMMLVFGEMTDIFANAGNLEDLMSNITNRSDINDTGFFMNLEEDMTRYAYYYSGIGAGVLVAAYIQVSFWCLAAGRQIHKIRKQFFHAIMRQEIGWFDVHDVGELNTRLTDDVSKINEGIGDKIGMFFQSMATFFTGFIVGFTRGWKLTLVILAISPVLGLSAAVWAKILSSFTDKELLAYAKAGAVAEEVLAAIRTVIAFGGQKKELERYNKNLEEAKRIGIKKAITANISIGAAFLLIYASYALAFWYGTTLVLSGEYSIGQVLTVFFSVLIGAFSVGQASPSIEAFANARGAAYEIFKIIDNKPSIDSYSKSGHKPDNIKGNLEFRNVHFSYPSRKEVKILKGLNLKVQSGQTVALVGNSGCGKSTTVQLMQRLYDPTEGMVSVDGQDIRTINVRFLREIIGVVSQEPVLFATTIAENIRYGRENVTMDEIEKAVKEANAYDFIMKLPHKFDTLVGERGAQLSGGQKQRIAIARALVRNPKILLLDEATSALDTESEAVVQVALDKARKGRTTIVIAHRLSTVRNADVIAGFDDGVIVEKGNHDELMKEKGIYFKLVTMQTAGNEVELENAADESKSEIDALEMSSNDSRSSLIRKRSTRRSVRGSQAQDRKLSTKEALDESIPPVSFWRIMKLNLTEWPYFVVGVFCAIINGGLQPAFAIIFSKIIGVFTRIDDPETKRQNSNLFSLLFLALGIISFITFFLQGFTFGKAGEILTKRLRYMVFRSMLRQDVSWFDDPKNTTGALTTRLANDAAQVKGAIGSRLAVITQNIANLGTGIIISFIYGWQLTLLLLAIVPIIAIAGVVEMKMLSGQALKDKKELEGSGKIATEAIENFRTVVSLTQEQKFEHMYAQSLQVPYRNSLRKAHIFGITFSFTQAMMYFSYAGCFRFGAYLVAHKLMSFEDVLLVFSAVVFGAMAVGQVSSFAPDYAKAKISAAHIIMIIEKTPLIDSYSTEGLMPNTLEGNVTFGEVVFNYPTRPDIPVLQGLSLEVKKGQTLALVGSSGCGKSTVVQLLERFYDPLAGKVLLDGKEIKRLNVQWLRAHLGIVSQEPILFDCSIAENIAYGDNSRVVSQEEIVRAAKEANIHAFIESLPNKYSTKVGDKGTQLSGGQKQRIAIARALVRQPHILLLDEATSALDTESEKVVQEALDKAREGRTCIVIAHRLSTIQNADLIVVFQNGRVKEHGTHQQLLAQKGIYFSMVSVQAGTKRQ
Chain of Normal Human MDR1 P-glycoprotein (P08183 whole entry): as above

Compound | Fold vs PTX ÷ 29 ([1]; 5 μM inhibitor) [Fold] | Fold vs PTX ([1]; 5 μM inhibitor, vs PTX alone) [Fold] | Fold vs PTX ÷ 29 ([1]; 7 μM inhibitor) [Fold] | Fold vs PTX ([1]; 7 μM inhibitor, vs PTX alone) [Fold] | Fold vs PTX ÷ 29 ([1]; 10 μM inhibitor) [Fold] | Fold vs PTX ([1]; 10 μM inhibitor, vs PTX alone) [Fold] | Stimulated ATPase (% of DMSO) [2] | Basal ATPase (% of DMSO) [2] | Transport substrate for P-gp [3] | Maximum ATP binding mol SL-ANP bound/mol P-gp [4] [mol SL-ANP bound/mol P-gp] | Basal ATPase (% of DMSO) [5] | Stimulated ATPase (% of DMSO) [5] | Intracellular accumulation in the presence versus absence of TQR [3] | other results
Cc1cc(C)c(-c2cc(NC(=O)CSCC(=O)c3ccc4c(c3)Cc3ccccc3-4)n(-c3ccccc3)n2)cc1C [SMU29-216] | 1.3 | 14 | 1 | 34 | 0.4 | 37 | 108 ± 2 % of DMSO | 105 ± 7 % of DMSO | no | 1.7 ± 0.1 | 69 ± 8 % of DMSO | 64 ± 6 % of DMSO |  | Effect on stimulated ATPase [2]: none; Effect on stimulated ATPase ([2]; listed as 216): did not affect; Effect on basal ATPase [2]: none; Effect on basal ATPase ([2]; listed as 216): did not significantly affect; Cellular accumulation: ratio of plus Tariquidar over no Tariquidar [3]: 1.1; Effect on SL-ANP binding [4]: no; Effect on basal ATPase [5]: inhibitor; Effect on stimulated ATPase [5]: inhibitor
Cc1cc(C)c(-c2cc(NC(=O)CSCC(=O)N3c4ccccc4CCc4ccccc43)n(-c3ccccc3)n2)cc1C [SMU29-227] | 3.7 | 41 | 10 | 353 | 5 | 530 | 50 ± 2 % of DMSO | 88 ± 4 % of DMSO |  | 1.8 ± 0.1 | 83 ± 7 % of DMSO | 62 ± 5 % of DMSO |  | Fold vs PTX ÷ 29 ([1]; 3 μM inhibitor, listed as 227): 3.8 Fold; Fold vs PTX [1, 6]: 13 Fold
Cc1cc(C)c(-c2cc(NC(=O)CSCC(=O)Nc3ccc4ccccc4c3)n(-c3ccccc3)n2)cc1C [SMU29-231] | 4.2 | 46 | 3.4 | 303 | 11 | 1060 | 141 ± 18 % of DMSO | 70 ± 0 % of DMSO |  | 1.6 ± 0.1 | 70 ± 4 % of DMSO | 40 ± 3 % of DMSO |  | Fold vs PTX ÷ 29 ([1]; 3 μM inhibitor, listed as 231): 4.1 Fold; Fold vs PTX [1, 6]: 14 Fold
COc1cc(NC(=O)CSCC(=O)Nc2cc(-c3cc(C)c(C)cc3C)nn2-c2ccccc2)cc(OC)c1OC [SMU29-238] |  |  |  |  |  |  | 194 ± 22 % of DMSO | 1143 ± 46 % of DMSO | very likely to be transport substrates | 1.2 ± 0.1 | 89 ± 7 % of DMSO | 61 ± 7 % of DMSO | very large and significant increase | 
Cc1cc(C)c(-c2cc(NC(=O)CSCC(=O)Nc3ccc4ncsc4c3)n(-c3ccccc3)n2)cc1C [SMU29-255] |  |  |  |  |  |  | 123 ± 15 % of DMSO | 355 ± 7 % of DMSO | very likely to be transport substrates | 1.9 ± 0.1 | 84 ± 9 % of DMSO | 59 ± 6 % of DMSO | more modest, but statistically significant increases | 
Cc1cc(C)c(-c2cc(NC(=O)CSCC(=O)NC34CC5CC(CC(C5)C3)C4)n(-c3ccccc3)n2)cc1C [SMU29-278] |  |  |  |  |  |  | 41 ± 7 % of DMSO | 78 ± 4 % of DMSO | very unlikely to be a transport substrate | 1.3 ± 0.1 | 74 ± 6 % of DMSO | 63 ± 6 % of DMSO | did not show significantly different intracellular accumulations | 
Cc1cc(C)c(-c2cc(NC(=O)CSCC(=O)NC(c3ccccc3)c3ccccc3)n(-c3ccccc3)n2)cc1C [SMU29-280] |  |  |  |  |  |  | 116 ± 4 % of DMSO | 148 ± 4 % of DMSO |  | 1.6 ± 0.1 | 76 ± 8 % of DMSO | 54 ± 7 % of DMSO | did not show significantly different intracellular accumulations | Effect on basal ATPase ([2]; listed as 280): stimulated basal ATPase only marginally or with no statistical significance
Cc1cc(C)c(-c2cc(NC(=O)CSCC(=O)NCc3ccc(F)cc3)n(-c3ccccc3)n2)cc1C [SMU29-286] |  |  |  |  |  |  | 98 ± 2 % of DMSO | 143 ± 32 % of DMSO | very likely to be transport substrates | 1.9 ± 0.1 | 95 ± 3 % of DMSO | 59 ± 4 % of DMSO | more modest, but statistically significant increases | Effect on basal ATPase ([2]; listed as 286): stimulated basal ATPase only marginally or with no statistical significance

From US20220175777A1, “Inhibitors of Multidrug Resistance Transporter P-Glycoprotein” (Southern Methodist University, priority 2014, published 2022)
